According to paper PMC12598616, “Design and optimization of caspase-1-responsive fluorescent probes for pyroptosis imaging and anti-pyroptosis drug screening” (Chemical Science, 2025):

Test system: osteoarthritis mouse model (ACL transection)
Experiment: In vivo fluorescence imaging of osteoarthritis
Set-up: species or system C57BL/6J mouse
Conditions: injected into joint cavity; 0, 7, 14, 21 days post-surgery
Method: The decline in chondrocyte function plays a crucial role in the pathogenesis of OA. Inflammasome-mediated chondrocyte pyroptosis has been closely associated with matrix degradation and cartilage degeneration in OA.[38] To model OA in vitro, primary chondrocytes were stimulated with H2O2 (2 mM) for different durations, followed by staining with FPy1 (5 μM) and fluorescence imaging to monitor the progression of pyroptosis under oxidative stress. […] To better mimic the in vivo pathological features of OA, primary chondrocytes were also cultured as three-dimensional spheroids and stimulated with H2O2. […] Furthermore, we evaluated the capability of FPy1 to monitor pyroptosis progression at different stages of OA in a mouse model. […] The pathological manifestations in the corresponding tissues became more pronounced with longer modeling periods, consistent with the fluorescence imaging results obtained using FPy1. […]
Harvested rat discs were fixed in 4 % buffered paraformaldehyde for 24 hours, decalcified in 10 % ethylenediaminetetraacetic acid (EDTA, Solarbio, E8030) solution for 1 month, embedded in paraffin, and sectioned at a thickness of 5 μm. […] Stained sections were evaluated by three independent raters, blinded to the research protocol, and measurements were averaged for statistical analysis. […]
In vivo fluorescence imaging of intervertebral disc degeneration […]

Substance: –FLTDG– [FPy1, RhoB donor, hNR quencher]
- in vivo fluorescence signals in knee joints: gradually increasing as the modeling duration was extended
